This passage reports photoluminescence quantum yield results from the Deep4Chem optical property database.

The data set in a line: photoluminescence quantum yield (fraction); solvent given as SMILES.

The compound `COc1ccccc1C1=[N+]2C(=Cc3c4cc5ccccc5cc4c(-c4ccccc4OC)n3[B-]2(F)F)c2cc3ccccc3cc21` had a photoluminescence quantum yield (in C1CCOC1) of 0.29.
Regarding `CCCCCCC(CCCCCC)n1c(=O)c2c3ccc4cccc5c6cccc7ccc(c2c1=O)c(c76)c3c45`, the photoluminescence quantum yield reads like this: (in C1CCCCC1) 0.32; (in CC#N) 0.33; (in CC(C)=O) 0.27; (in CCCCCC) 0.32; (in CCO) 0.3; (in CCOCC) 0.34. Further, the photoluminescence quantum yield was found to be 0.44 (in CS(C)=O), 0.42 (in Cc1ccccc1), 0.37 (in ClC(Cl)(Cl)Cl) and 0.35 (in ClC(Cl)Cl).
For the compound `CCCCC(CC)Cn1c2cc(C#N)ccc2c2ccc(C#Cc3ccc4ccc5c(C#Cc6ccc7c8ccc(C#N)cc8n(CC(CC)CCCC)c7c6)cc(C#Cc6ccc7c8ccc(C#N)cc8n(CC(CC)CCCC)c7c6)c6ccc3c4c56)cc21` (centres undefined), the photoluminescence quantum yield (in ClCCl) is 0.64.
Turning to `CC1=[N+]2C(=Cc3ccc(C)n3[B-]2(F)F)C=C1c1cc2n(c1)[B-](F)(F)[N+]1=CC=CC1=C2c1c(C)cc(C)cc1C`, the photoluminescence quantum yield (in C1CCCCC1) was found to be 0.98 and the photoluminescence quantum yield (in CCOC(C)=O) was 0.11.
Consider `CC1=NN(c2cccc3ccccc23)[B-](F)(F)[n+]2ccccc21`, for which, where the note is “in ClCCl”, the photoluminescence quantum yield came to 0.07.
As to `COc1ccc(-n2c3c4ccccc4nc(-c4ccc(C#N)cc4)c3c3c2c2c(-c4ccc(C#N)cc4)nc4ccccc4c2n3-c2ccc(OC)cc2)cc1`, under “in ClC(Cl)Cl”, the photoluminescence quantum yield amounted to 0.074.
Turning to `CC(C)(C)c1ccc(C2=Cc3cc4c(cc3P2(=O)c2ccccc2)C=C(c2ccc(C(C)(C)C)cc2)P4(=O)c2ccccc2)cc1` (centres undefined), where the note is “in C1CCOC1”, the photoluminescence quantum yield worked out at 0.44.
Compound `c1ccc(-c2c3ccccc3c(-c3ccc4ccccc4c3)c3ccccc23)nc1` displayed a photoluminescence quantum yield (in ClCCl) of 0.75.
As for `F[B-]1(F)n2c(nc(Br)c2Br)-c2cccc[n+]21`, the photoluminescence quantum yield runs as follows: (in C1CCCCC1) 0.47; (in C1CCOC1) 0.32; (in C1COCCO1) 0.35; (in CC#N) 0.32; (in CCCCCC) 0.45; (in CO) 0.31. The same compound came in with a photoluminescence quantum yield (in ClC(Cl)Cl) of 0.41.
The compound `F[B-]1(F)OC(c2ccc(Br)cc2)=Cc2c3ccccc3c3ccccc3[n+]21` had a photoluminescence quantum yield (in ClC(Cl)Cl) of 0.152.
For the setting “in ClCCl”, `Cn1nc(-c2ccccc2)cc1-c1ccccc1` came in with a photoluminescence quantum yield of 0.42.
For `C/C(=C\c1ccc(Cl)cc1)c1nc2ccccc2o1`, the photoluminescence quantum yield runs as follows: (in C1CCCCC1) 0.02; (in CO) 0.003.
Where the note is “in CO”, `COc1ccc(-c2ccc3c(c2)nnn3C[C@H](N)C(=O)O)cc1` showed a photoluminescence quantum yield of 0.17.
Take `O=C1c2ccccc2-c2ccc(N3CCN(c4ccccc4)CC3)c3cccc1c23`: the photoluminescence quantum yield by setting is: (in C1CCCCC1) 0.424; (in C1CCOC1) 0.123; (in C1COCCO1) 0.42; (in CC1COC(=O)O1) 0.009; (in CC#N) 0.005; (in CC(C)=O) 0.011. Further, the photoluminescence quantum yield is, setting by setting: (in CCCCCCCCO) 0.018; (in CCCCCO) 0.017; (in CCCCO) 0.014; (in CCCO) 0.021; (in CCO) 0.007; (in CCOC(C)=O) 0.108. Further, the photoluminescence quantum yield came to 0.005 (in CN(C)C=O); 0.004 (in CO); 0.004 (in CS(C)=O); 0.431 (in Cc1ccccc1); 0.348 (in ClC(Cl)Cl).
Turning to `C(=C\c1ccc2ccccc2c1)/c1ccc(Nc2ccccc2)cc1`, the photoluminescence quantum yield was found to be 0.28 (in CC#N) and 0.46 (in CCCCCC).
Take `COc1ccc2c(c1)c1cc(OC)ccc1n2-c1nc2ccccc2nc1-n1c2ccc(OC)cc2c2cc(OC)ccc21`: the photoluminescence quantum yield (in Cc1ccccc1) was determined as 0.13.
For `Nc1nc2ccccc2[n+]([O-])n1`, the photoluminescence quantum yield was 0.169 (in CC#N) and 0.0367 (in O).
`COc1cc2c(cc1OC)C1=C[C@H](c3ccc(C)cc3)C3(C(C#N)=C(C#N)N1CC2)c1cc(Br)ccc1-c1ccc(Br)cc13` returned a photoluminescence quantum yield (in ClCCl) of 0.00023.
`Cc1c2c(c(C)c3ccccc13)-c1cc3nc4ccccc4nc3cc1-2` displayed a photoluminescence quantum yield (in ClC(Cl)Cl) of 0.72.
Take `CCOC(=O)c1c2c3c(ccc([N+](=O)[O-])c3c3cc4c(cc13)[Si](C)(C)O[Si]4(C)C)N(C)C2=O`: the photoluminescence quantum yield (in CC#N) was 0.3.
As to `CCCCOc1ccc(-c2cc3c(o2)c(-c2ccc(OCCCC)cc2)c2n3[B-](F)(F)[N+]3=Cc4c(-c5ccc(OCCCC)cc5)c5oc(-c6ccc(OCCCC)cc6)cc5n4[B-](F)(F)[N+]3=C2)cc1`, the photoluminescence quantum yield was 0.44 (in C1CCOC1); 0.32 (in CN(C)C=O); 0.3 (in CS(C)=O); 0.37 (in Cc1ccccc1); 0.41 (in ClC(Cl)Cl); 0.4 (in ClCCl).
`CN(C)c1ccc(C2=[N+]3C(=Nc4c(-c5ccc(O)cc5)cc(-c5ccc(N(C)C)cc5)n4[B-]3(F)F)C(c3ccc(O)cc3)=C2)cc1` registered a photoluminescence quantum yield (in C1CCOC1) of 0.04 and a photoluminescence quantum yield (in Cc1ccccc1) of 0.1.
Regarding `COc1ccc(O)c(-c2nc(C)c3n2CCCC3)c1`, the photoluminescence quantum yield (in ClCCl) was 0.11.
Take `CCN(CC)c1ccc(-c2c3c(n4ccc(C(C)=O)cc24)C(=O)N(CCCNC(=O)OC(C)(C)C)C3)cc1`: the photoluminescence quantum yield (in CO) was 0.
Turning to `COc1ccc(-c2cnc(-c3cccnc3)o2)cc1OC`, the photoluminescence quantum yield (in ClCCl) is 0.98.
With `Cc1ccc(-c2c3ccc([nH]3)c3nc(c(-c4ccc(C#N)cc4)c4ccc([nH]4)c4ccc([nH]4)c(-c4ccc(C)cc4)c4ccc2o4)C=C3)cc1`, the photoluminescence quantum yield runs as follows: (in C1CCOC1) 0.179; (in Cc1ccccc1) 0.166; (in c1ccccc1) 0.175.
Under “in O=P(c1ccccc1)(c1ccccc1)c1ccccc1Oc1ccccc1P(=O)(c1ccccc1)c1ccccc1”, `c1ccc(-c2nc(-c3ccccc3)nc(-c3ccccc3-n3c4ccccc4c4c5oc6ccccc6c5ccc43)n2)cc1` gave a photoluminescence quantum yield of 0.979.
Take `c1ccc(-c2nc(-c3ccccc3)nc(-c3ccc(-n4c5ccccc5c5cc6c7ccccc7n7c8ccccc8c(c54)c67)cc3)n2)cc1`: the photoluminescence quantum yield (in O=P(c1ccccc1)(c1ccccc1)c1ccc2oc3ccc(P(=O)(c4ccccc4)c4ccccc4)cc3c2c1) turned out to be 0.68.
`CCC1(CC)c2cc(B(c3c(C)cc(C)cc3C)c3c(C)cc(C)cc3C)ccc2-c2c1c1c(c3c2C(CC)(CC)c2cc(N(c4ccccc4)c4ccccc4)ccc2-3)C(CC)(CC)c2cc(B(c3c(C)cc(C)cc3C)c3c(C)cc(C)cc3C)ccc2-1`: the photoluminescence quantum yield (in C1CCOC1) was found to be 0.2.
For the compound `F[Si](c1c2ccccc2cc2ccccc12)(c1c2ccccc2cc2ccccc12)c1c2ccccc2cc2ccccc12`, the photoluminescence quantum yield worked out at 0.033 (in C1CCOC1) and 0.036 (in ClC(Cl)Cl).
Consider `CN(C)c1ccc2nc(-c3ccc(C(=O)Nc4ccccc4)cc3)sc2c1`, for which the photoluminescence quantum yield was determined as 0.89 (in C1CCCCC1); 0.92 (in CC#N); 0.91 (in CC(C)O); 0.76 (in CO); 0.99 (in CS(C)=O); 0.98 (in ClC(Cl)Cl). For the setting “in c1ccccc1”, this compound yielded a photoluminescence quantum yield of 0.92.
Under “in CS(C)=O”, `Cc1ccc2oc(-c3cc4cc(C)ccc4oc3=O)cc2c1` gave a photoluminescence quantum yield of 0.83.
For `O=C1c2ccc(-c3ccc(N(c4ccccc4)c4ccccc4)cc3)cc2C(=O)c2ccc(-c3ccc(N(c4ccccc4)c4ccccc4)cc3)cc21`, the photoluminescence quantum yield was determined as 0.59 (in Cc1ccccc1) and 0.8 (in c1ccc2c(c1)c1ccccc1n2-c1ccc(-c2ccc(-n3c4ccccc4c4ccccc43)cc2)cc1).
`c1ccc2cc3c4c(ccc3cc2c1)-c1cccc2cccc-4c12` displayed a photoluminescence quantum yield (in CCCCCCC) of 0.023.
For the setting “in ClCCl”, `Fc1ccc(C#Cc2c(C#Cc3ccc(F)cc3)c(C#Cc3ccc(F)cc3)c(C#Cc3ccc(F)cc3)c(C#Cc3ccc(F)cc3)c2C#Cc2ccc(F)cc2)cc1` registered a photoluminescence quantum yield of 0.25.
Consider `COCCOc1ccc(OCCOC)c(C=O)c1`, for which the photoluminescence quantum yield came out at 0.13 (in CC(C)(C)O); 0.21 (in CC(C)CO); 0.21 (in CC(C)O); 0.23 (in CCCCO); 0.25 (in CCCO); 0.2 (in CCO). Also, the photoluminescence quantum yield by setting is: (in CN(C)C=O) 0.03; (in CNC=O) 0.14; (in CO) 0.24; (in NC=O) 0.44; (in O) 0.11.
Take `CN(C)c1ccc(C#Cc2ccc(-c3nc(C#N)c(C#N)n3C)cc2)cc1`: the photoluminescence quantum yield is, setting by setting: (in C1CCCCC1) 0.84; (in CC#N) 0.005; (in CO) 0.003; (in ClC(Cl)Cl) 0.88.
`CCn1c2sccc2c2c3nsnc3c3c4ccsc4n(CC)c3c21`: the photoluminescence quantum yield reads like this: (in C1CCOC1) 0.51; (in CCOC(C)=O) 0.47; (in CN(C)C=O) 0.43; (in Cc1ccccc1) 0.45; (in ClCCl) 0.34.
Compound `COc1cc(C2=C(c3cc(OC)c(OC)c(OC)c3)C(c3ccc(C(C)(C)C)cc3)=[N+]3C2=Nc2c(-c4cc(OC)c(OC)c(OC)c4)c(-c4cc(OC)c(OC)c(OC)c4)c(-c4ccc(C(C)(C)C)cc4)n2[B-]3(F)F)cc(OC)c1OC` had a photoluminescence quantum yield (in Cc1ccccc1) of 0.001.
For the compound `CCCCCCCCCC1(CCCCCCCCC)c2cc(C#Cc3ccc(/C=C/c4ccc(N(CCCCCCCC)CCCCCCCC)cc4)cc3)ccc2-c2ccc(C#Cc3ccc(/C=C/c4ccc(N(CCCCCCCC)CCCCCCCC)cc4)cc3)cc21`, under “in Cc1ccccc1”, the photoluminescence quantum yield worked out at 0.61.
Regarding `COc1ccc(-c2ccc(-c3ccc(OC)cc3)cc2)cc1`, the photoluminescence quantum yield (in C1CCCCC1) was determined as 0.64.
